Tests used:
Laodelphax striatellus = assay: Insecticidal activity against 1 to 3 day-old adult Laodelphax striatella (small brown planthopper) infested compound-treated rice seedlings assessed as mortality measured after 3 days; type: functional
Nephotettix cincticeps = assay: Insecticidal activity against 1 to 3 day-old adult Nephotettix cincticeps (green rice leafhopper) infested in compound-treated rice seedlings assessed as mortality measured after 3 days; type: functional

Row | Structure (SMILES) | LC70 (Laodelphax striatellus) | LC70 (Nephotettix cincticeps)
1 | COC(=O)N(CC1CCOC1)/C(=N/[N+](=O)[O-])N(C)C(C)=O (racemic) | 1 ppm | 0.1 ppm
2 | CN(C)/C(=C\[N+](=O)[O-])N(C)CC1CCOC1 (racemic) | 1 ppm | 10 ppm
3 | O=[N+]([O-])/N=C1\NCCN1CC1CCOC1 (racemic) | 10 ppm | 1 ppm
4 | CN(C(=O)c1ccccc1)/C(=N\[N+](=O)[O-])N(CC1CCOC1)C(=O)c1ccccc1 (racemic) | 1 ppm | 0.1 ppm
5 | CN(C)/C(=C\[N+](=O)[O-])NCC1CCOC1 (racemic) | 0.1 ppm | 1 ppm
6 | CS/C(=N\[N+](=O)[O-])NCC1CCOC1 (centres undefined) | 10 ppm | 10 ppm
7 | CS/C(=C\[N+](=O)[O-])NCC1CCOC1 (racemic) | >1000 ppm | >1000 ppm
8 | CN(C)/C(=N\[N+](=O)[O-])N(C)CC1CCOC1 (racemic) | 10 ppm | 10 ppm
9 | CN(C)/C(=N\[N+](=O)[O-])NCC1CCOC1 (racemic) | 1 ppm | 0.1 ppm
10 | CCN(C(C)=O)/C(=N\[N+](=O)[O-])N(CC1CCOC1)C(C)=O (racemic) | 10 ppm | 10 ppm
11 | CC(=O)N(C)/C(=N\[N+](=O)[O-])N(CC1CCOC1)C(C)=O (racemic) | 0.1 ppm | 0.1 ppm
12 | O=[N+]([O-])/N=C(\NCc1ccccc1)NCC1CCOC1 (racemic) | >1000 ppm | >1000 ppm
13 | CN/C(=N/CC1CCOC1)N[N+](=O)[O-] (centres undefined) [DINOTEFURAN] | 0.1 ppm | 0.1 ppm
14 | CN/C(=C\[N+](=O)[O-])NCC1CCOC1 (racemic) | 0.1 ppm | 0.1 ppm
15 | O=[N+]([O-])/C=C1\NCCCN1CC1CCOC1 (racemic) | 1 ppm | 0.1 ppm
16 | CCN/C(=C\[N+](=O)[O-])NCC1CCOC1 (racemic) | 10 ppm | 10 ppm
17 | CCCN(CC1CCOC1)/C(=C/[N+](=O)[O-])NC (racemic) | 10 ppm | 10 ppm
18 | CC(=O)N1CCCN(CC2CCOC2)/C1=N\[N+](=O)[O-] (racemic) | 10 ppm | 0.1 ppm
19 | CN1CCCN(CC2CCOC2)/C1=N/[N+](=O)[O-] (racemic) | 100 ppm | 10 ppm
20 | O=C(N/C(=N\[N+](=O)[O-])NCC1CCOC1)c1ccccc1 (racemic) | >1000 ppm | >1000 ppm
21 | CCN/C(=N\[N+](=O)[O-])NCC1CCOC1 (racemic) | 100 ppm | 10 ppm

Row | Structure (SMILES) | LC70 (Laodelphax striatellus) | LC70 (Nephotettix cincticeps)
22 | CCN(CC1CCOC1)/C(=C/[N+](=O)[O-])NC (racemic) | 1 ppm | 10 ppm
23 | COC(=O)N(C)/C(=N\[N+](=O)[O-])N(CC1CCOC1)C(=O)OC (racemic) | 1 ppm | 0.1 ppm
24 | CS/C(=N\[N+](=O)[O-])N(C)CC1CCOC1 (racemic) | >1000 ppm | >1000 ppm
25 | O=[N+]([O-])/C=C1\NCCN1CC1CCOC1 (racemic) | 10 ppm | 0.1 ppm
26 | CCN(CC1CCOC1)/C(=N/[N+](=O)[O-])NC (racemic) | 10 ppm | 10 ppm
27 | CCCN/C(=C\[N+](=O)[O-])NCC1CCOC1 (racemic) | 100 ppm | 100 ppm
28 | CN/C(=N\[N+](=O)[O-])N(C)CC1CCOC1 (racemic) | 1 ppm | 1 ppm
29 | O=[N+]([O-])/C=C1\NCCCCN1CC1CCOC1 (racemic) | 10 ppm | 1 ppm
30 | N/C(=N\[N+](=O)[O-])NCC1CCOC1 (racemic) | >1000 ppm | 100 ppm
31 | O=C(c1ccccc1)N1CCCN(CC2CCOC2)/C1=N\[N+](=O)[O-] (racemic) | 10 ppm | 0.1 ppm
32 | CN(Cc1ccccc1)/C(=N\[N+](=O)[O-])N(Cc1ccccc1)CC1CCOC1 (racemic) | 10 ppm | 10 ppm
33 | C#CCN/C(=C\[N+](=O)[O-])NCC1CCOC1 (racemic) | >1000 ppm | >1000 ppm
34 | CN/C(=C\[N+](=O)[O-])N(C)CC1CCOC1 (racemic) | 1 ppm | 1 ppm
35 | O=[N+]([O-])/N=C1\NCCCN1CC1CCOC1 (racemic) | 1 ppm | 0.1 ppm
36 | COC(=O)N/C(=N\[N+](=O)[O-])NCC1CCOC1 (racemic) | >1000 ppm | 10 ppm
37 | COC(=O)N(CC1CCOC1)/C(=N/[N+](=O)[O-])N(C)Cc1ccccc1 (racemic) | 1 ppm | 0.1 ppm
38 | CCN(C)/C(=N\[N+](=O)[O-])NCC1CCOC1 (racemic) | 10 ppm | 10 ppm
39 | CS/C(=C\[N+](=O)[O-])N(C)CC1CCOC1 (racemic) | >1000 ppm | >1000 ppm
40 | O=[N+]([O-])/N=C1\NCCCCN1CC1CCOC1 (racemic) | 100 ppm | 10 ppm
41 | CN1CCCN(CC2CCOC2)/C1=C/[N+](=O)[O-] (racemic) | 10 ppm | 10 ppm
42 | CC(=O)N/C(=N\[N+](=O)[O-])NCC1CCOC1 (racemic) | >1000 ppm | >1000 ppm
